Experimental data reported in ChEMBL document CHEMBL1157376, “Plasmid-mediated quinolone resistance determinant QnrB4 identified in France in an Enterobacter cloacae clinical isolate coexpressing a QnrS1 determinant” (2007).
≈ marks a conversion by molar mass, not a printed value.

Legend:
Assay type in all cases: functional
Escherichia coli [1] = assay: Antibacterial activity against Escherichia coli TOP10 by E-test
Escherichia coli [2] = assay: Antibacterial activity against Escherichia coli TOP10 containing pS1B plasmid expressing quinolone resistance determinant QnrS1 by E-test
Escherichia coli [3] = assay: Antibacterial activity against Escherichia coli TOP10 containing pS1A plasmid expressing quinolone resistance determinant QnrB4 by E-test
Enterobacter cloacae = assay: Antibacterial activity against Enterobacter cloacae S1 isolate expressing quinolone resistance determinant QnrB4 by E-test

Question: What does the source list for `COc1c(N2C[C@@H]3CCCN[C@@H]3C2)c(F)cc2c(=O)c(C(=O)O)cn(C3CC3)c12` [MOXIFLOXACIN]?
Answer: MIC (Escherichia coli [1]): < 0.01 µg/mL; MIC (Escherichia coli [2]): 0.25 µg/mL (≈ 0.623 µM); MIC (Escherichia coli [3]): 0.12 µg/mL (≈ 0.299 µM)

Question: Which results are given for `C[C@@H]1CN(c2c(F)c(N)c3c(=O)c(C(=O)O)cn(C4CC4)c3c2F)C[C@H](C)N1` [SPARFLOXACIN]?
Answer: MIC (Escherichia coli [1]): < 0.01 µg/mL; MIC (Escherichia coli [2]): 0.25 µg/mL (≈ 0.637 µM); MIC (Escherichia coli [3]): 0.03 µg/mL (≈ 0.0765 µM); MIC (Enterobacter cloacae): > 32 µg/mL

Question: What does the source list for `CCn1cc(C(=O)O)c(=O)c2ccc(C)nc21` [NALIDIXIC ACID]?
Answer: MIC (Escherichia coli [1]): 1 µg/mL (≈ 4.31 µM); MIC (Escherichia coli [2]): 4 µg/mL (≈ 17.2 µM); MIC (Escherichia coli [3]): 2 µg/mL (≈ 8.61 µM); MIC (Enterobacter cloacae): > 256 µg/mL

Question: How did the MIC (Escherichia coli [1]) turn out when `O=C(O)c1cn(C2CC2)c2cc(N3CCNCC3)c(F)cc2c1=O` [CIPROFLOXACIN] was run?
Answer: < 0.01 µg/mL

Question: Which results are given for `CCn1cc(C(=O)O)c(=O)c2cc(F)c(N3CCNCC3)cc21` [NORFLOXACIN]?
Answer: MIC (Escherichia coli [1]): 0.03 µg/mL (≈ 0.0939 µM); MIC (Escherichia coli [2]): 0.5 µg/mL (≈ 1.57 µM); MIC (Escherichia coli [3]): 0.25 µg/mL (≈ 0.783 µM); MIC (Enterobacter cloacae): > 32 µg/mL

Question: What does the source list for `CC1COc2c(N3CCN(C)CC3)c(F)cc3c(=O)c(C(=O)O)cn1c23` (stereo not drawn) [OFLOXACIN]?
Answer: MIC (Escherichia coli [2]): 0.25 µg/mL (≈ 0.692 µM); MIC (Enterobacter cloacae): > 32 µg/mL
